This is an account of results in patent US8901156B2, “Compounds and methods” (Tempero Pharmaceuticals, Inc., priority 2010, dated 2014).

The experiment deals with T1, Recombinant HDAC9 isoform 4 (Homo sapiens, UniProt Q9UKV0).
T1 construct: purchased BPS Bioscience
As to the kind of experiment: Histone Deacetylase 9 (HDAC9) inhibition assay, fluorogenic substrate. The class given is biochemical. Conditions: mean of a minimum of 2 experiments; 11 point 3x dilution series from 100 uM; substrate 4.5 uM; read-out: mean pIC50, inhibition of HDAC9 (converted).

Each structure is given as a SMILES string.

T1 sequence (Q9UKV0 1-1066 isoform Q9UKV0-5): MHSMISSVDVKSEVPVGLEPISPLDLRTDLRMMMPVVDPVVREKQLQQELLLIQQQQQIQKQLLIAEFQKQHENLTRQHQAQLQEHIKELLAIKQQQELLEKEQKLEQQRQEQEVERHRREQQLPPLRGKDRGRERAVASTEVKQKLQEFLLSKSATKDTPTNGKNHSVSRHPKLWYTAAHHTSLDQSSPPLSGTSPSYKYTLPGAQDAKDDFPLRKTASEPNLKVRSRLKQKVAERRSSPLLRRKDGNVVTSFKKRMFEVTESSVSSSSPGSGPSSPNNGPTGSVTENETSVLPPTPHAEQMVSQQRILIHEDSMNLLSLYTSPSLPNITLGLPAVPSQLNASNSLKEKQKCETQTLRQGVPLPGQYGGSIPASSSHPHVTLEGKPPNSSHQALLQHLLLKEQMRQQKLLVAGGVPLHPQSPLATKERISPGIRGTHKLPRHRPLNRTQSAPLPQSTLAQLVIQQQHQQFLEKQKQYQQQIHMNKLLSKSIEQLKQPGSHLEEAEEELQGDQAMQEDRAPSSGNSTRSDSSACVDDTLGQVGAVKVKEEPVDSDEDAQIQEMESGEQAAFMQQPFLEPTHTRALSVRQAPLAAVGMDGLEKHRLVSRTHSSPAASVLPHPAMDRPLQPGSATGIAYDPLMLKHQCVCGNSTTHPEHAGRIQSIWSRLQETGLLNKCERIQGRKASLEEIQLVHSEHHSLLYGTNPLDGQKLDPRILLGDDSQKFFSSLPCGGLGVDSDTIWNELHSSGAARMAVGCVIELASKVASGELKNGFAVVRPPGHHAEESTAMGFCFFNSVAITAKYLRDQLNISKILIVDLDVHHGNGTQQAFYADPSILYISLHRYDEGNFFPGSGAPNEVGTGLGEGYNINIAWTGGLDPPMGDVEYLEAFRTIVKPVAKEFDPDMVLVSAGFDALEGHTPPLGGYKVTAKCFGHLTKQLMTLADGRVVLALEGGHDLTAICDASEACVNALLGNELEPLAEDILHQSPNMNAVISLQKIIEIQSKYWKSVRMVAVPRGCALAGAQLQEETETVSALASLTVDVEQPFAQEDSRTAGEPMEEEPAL

In the case of `O=C(NCC1(c2cccc(-c3ccccc3)c2)CCOCC1)c1cncc(-c2noc(C(F)(F)F)n2)c1` [Example 78, N-((4-([1,1′-Biphenyl]-3-yl)tetrahydro-2H-pyran-4-yl)methyl)-5-(5-(trifluoromethyl)-1,2,4-oxadiazol-3-yl)nicotinamide], the IC50 was less than 1000 nM. In the case of `O=C(NCC1(c2nc(-c3ccncc3)cs2)CCOCC1)c1cccc(-c2noc(C(F)(F)F)n2)c1` [Example 21, N-((4-(4-(Pyridin-4-yl)thiazol-2-yl)tetrahydro-2H-pyran-4-yl)methyl)-3-(5-(trifluoromethyl)-1,2,4-oxadiazol-3-yl)benzamide], the IC50 is less than 1000 nM. Under `O=C(NCCC(O)c1coc(-c2ccc(F)cc2)n1)c1cccc(-c2noc(C(F)(F)F)n2)c1` (centres unmarked) [Example 110, N-(3-(2-(4-Fluorophenyl)oxazol-4-yl)-3-hydroxypropyl)-3-(5-(trifluoromethyl)-1,2,4-oxadiazol-3-yl)benzamide] stands less than 1000 nM; under `O=S(=O)(NCC1(c2nc(-c3ccccc3)cs2)CCOCC1)c1cccc(-c2noc(C(F)(F)F)n2)c1` [Example 32, N-((4-(4-Phenylthiazol-2-yl)tetrahydro-2H-pyran-4-yl)methyl)-3-(5-(trifluoromethyl)-1,2,4-oxadiazol-3-yl)benzenesulfonamide], less than 1000 nM; under `O=C(NCCc1nc(-c2ccccc2)no1)c1cccc(-c2noc(C(F)(F)F)n2)c1` [Example 132, N-(2-(3-Phenyl-1,2,4-oxadiazol-5-yl)ethyl)-3-(5-(trifluoromethyl)-1,2,4-oxadiazol-3-yl)benzamide], less than 1000 nM.
